Results taken from patent US20050234046A1 (Kalypsys, Inc., priority 2004, published 2005).

Experiments:
Assay in all cases: Transient transfection (transactivation) assay in CV-1 cells, GAL4-PPAR chimera, luciferase reporter
Format in all cases: cell-based
[1] = molecular target: T1, PPAR gamma (Homo sapiens, UniProt P37231)
T1 construct: expressed in transfected cells; host or cells: CV-1 cells
T1 sequence (P37231 238-503 limits assumed): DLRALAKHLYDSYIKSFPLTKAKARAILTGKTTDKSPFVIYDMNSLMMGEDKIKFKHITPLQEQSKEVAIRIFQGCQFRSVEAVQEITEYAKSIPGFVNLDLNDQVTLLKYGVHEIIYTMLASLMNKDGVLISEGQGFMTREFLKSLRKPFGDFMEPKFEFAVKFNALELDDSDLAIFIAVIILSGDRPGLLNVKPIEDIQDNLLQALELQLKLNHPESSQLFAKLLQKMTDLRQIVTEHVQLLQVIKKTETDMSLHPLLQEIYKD

[2] = molecular target: T2, PPAR alpha (Homo sapiens, UniProt Q07869)
T2 construct: expressed in transfected cells; host or cells: CV-1 cells
T2 sequence (Q07869 239-466 limits assumed): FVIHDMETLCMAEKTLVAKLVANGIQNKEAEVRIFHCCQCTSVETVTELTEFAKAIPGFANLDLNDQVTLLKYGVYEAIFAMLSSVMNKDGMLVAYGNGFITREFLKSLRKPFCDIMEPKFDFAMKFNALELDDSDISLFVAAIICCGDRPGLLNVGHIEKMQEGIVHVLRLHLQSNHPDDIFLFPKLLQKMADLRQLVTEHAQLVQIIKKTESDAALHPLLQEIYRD
Procedure, shortened: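 EC50 and efficacy come from a luciferase read-out after 20-24 hours of compound exposure (vehicle 1% DMSO) in transiently transfected CV-1 cells. These cells express a GAL4-PPAR ligand-binding-domain chimera plus a reporter with four or five GAL4 binding sites, and are kept in phenol-red free DME with 5% delipidated calf serum.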

[3] = molecular target: T3, PPAR delta (Homo sapiens, UniProt Q03181)
T3 construct: expressed in transfected cells; host or cells: CV-1 cells
T3 sequence (Q03181 211-439 limits assumed): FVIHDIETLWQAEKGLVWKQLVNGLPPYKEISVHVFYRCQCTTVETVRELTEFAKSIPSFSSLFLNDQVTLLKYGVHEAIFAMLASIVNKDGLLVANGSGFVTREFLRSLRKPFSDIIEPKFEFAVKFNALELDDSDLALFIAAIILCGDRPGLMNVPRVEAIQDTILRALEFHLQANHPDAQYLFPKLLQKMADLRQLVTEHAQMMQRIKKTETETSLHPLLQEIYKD

SMILES | EC50 [1] [µM] | EC50 [2] [µM] | EC50 [3] [µM]
O=C(O)Cc1cccc(S(=O)(=O)N2CCC(c3ccc(Cl)cc3)CC2)c1 [Example 184, {3-[4-(4-Chloro-phenyl)-piperidine-1-sulfonyl]-phenyl}-acetic acid] | > 100 | > 100 | 5 to 100
Cc1cc(CC(=O)O)cc(S(=O)(=O)N2CCC(c3ccc(Cl)cc3)CC2)c1 [Example 185, {3-[4-(4-Chloro-phenyl)-piperidine-1-sulfonyl]-5-methyl-phenyl}-acetic acid] | 5 to 100 | > 100 | 5 to 100
O=C(O)CCc1cccc(S(=O)(=O)N2CCN(c3ccc(Cl)cc3)CC2)c1 [Example 187, 3-{3-[4-(4-Chloro-phenyl)-piperazine-1-sulfonyl]-phenyl}-propionic acid] | 5 to 100 | > 100 | < 5
CC(C)(Oc1cccc(S(=O)(=O)N2CCN(c3ccc(Cl)c(Cl)c3)CC2)c1)C(=O)O [Example 189, 2-{3-[4-(3,4-Dichloro-phenyl)-piperazine-1-sulfonyl]-phenoxy}-2-methyl-propionic acid] | 5 to 100 | > 100 | > 100
O=C(O)COc1cccc(S(=O)(=O)N2CCN(c3ccc(C(F)(F)F)cc3)CC2)c1 [Example 190, {3-[4-(4-Trifluoromethyl-phenyl)-piperazine-1-sulfonyl]-phenoxy}-acetic acid] | > 100 | > 100 | 5 to 100
CC(C)(Oc1cccc(S(=O)(=O)N2CCN(c3ccc(C(F)(F)F)cc3)CC2)c1)C(=O)O [Example 191, 2-Methyl-2-{3-[4-(4-trifluoromethyl-phenyl)-piperazine-1-sulfonyl]-phenoxy}-propionic acid] | 5 to 100 | 5 to 100 | 5 to 100
C[C@@H]1CN(c2ccc(OC(F)(F)F)cc2)C[C@H](C)N1S(=O)(=O)c1ccc(O)c(CCC(=O)O)c1 [Example 192, 3-{5-[2,6-Dimethyl-4-(4-trifluoromethoxy-phenyl)-piperazine-1-sulfonyl]-2-hydroxy-phenyl}-propionic acid] | > 100 | > 100 | 5 to 100

Other lines, results leading:

EC50 [1] [µM] | EC50 [2] [µM] | EC50 [3] [µM] | SMILES
> 100 | > 100 | > 100 | COc1ccc(N2CCN(S(=O)(=O)c3ccc(C)c(CC(=O)O)c3)CC2)cc1OC [Example 179, {5-[4-(3,4-Dimethoxy-phenyl)-piperazine-1-sulfonyl]-2-methyl-phenyl}-acetic acid]
5 to 100 | > 100 | 5 to 100 | Cc1ccc(S(=O)(=O)N2CCN(c3ccc(F)cc3F)CC2)cc1CC(=O)O [Example 180, {5-[4-(2,4-Difluoro-phenyl)-piperazine-1-sulfonyl]-2-methyl-phenyl}-acetic acid]
5 to 100 | > 100 | 5 to 100 | Cc1ccc(S(=O)(=O)N2CCN(c3ccccc3)CC2)cc1CC(=O)O [Example 181, [2-Methyl-5-(4-phenyl-piperazine-1-sulfonyl)-phenyl]-acetic acid]
< 5 | 5 to 100 | < 5 | Cc1ccc(S(=O)(=O)N2CCN(c3ccc(C(F)(F)F)cn3)CC2)cc1CC(=O)O [Example 182, {2-Methyl-S-[4-(5-trifluoromethyl-pyridin-2-yl)-piperazine-1-sulfonyl]-phenyl}-acetic acid]
5 to 100 | 5 to 100 | < 5 | Cc1ccc(S(=O)(=O)N2CCN(c3ccc(C(F)(F)F)cc3)CC2)cc1CC(=O)O [Example 183, {2-Methyl-5-[4-(4-trifluoromethyl-phenyl)-piperazine-1-sulfonyl]-phenyl}-acetic acid]
5 to 100 | > 100 | < 5 | O=C(O)CCc1cccc(S(=O)(=O)N2CCN(c3ccc(Cl)c(Cl)c3)CC2)c1 [Example 186, 3-{3-[4-(3,4-Dichloro-phenyl)-piperazine-1-sulfonyl]-phenyl}-propionic acid]
> 100 | > 100 | 5 to 100 | O=C(O)COc1cccc(S(=O)(=O)N2CCN(c3ccc(Cl)c(Cl)c3)CC2)c1 [Example 188]
